Measurements from patent publication US11279733B2, “Peptide antibiotics” (priority 2017, dated 2022).
≈ marks a conversion by molar mass, not a printed value. Read-outs that look alike come from different tables or passages of the source. Positions of bridges follow the written chain, without caps; N, C: chain ends. Non-standard residues stand in square brackets, D forms with d. Residues, ends and D or L forms follow the SMILES beside them. *: point of attachment. Decanoyl(3R-OH) = CCCCCCC[C@@H](O)CC(=O)*; dOrn = NCCC[C@@H](N)C(=O)O; dDab = NCC[C@@H](N)C(=O)O; Dab = NCC[C@H](N)C(=O)O; X5 = O=C(CCCCCCCO)*

Columns and labels:
[1] = In vitro nephrotoxicity, GGT release from primary human kidney cells; format: cell-based; details: pH 7.4
From the text: (§1) hPT cells were derived from whole human kidneys procured by the International Institute for the Advancement of Medicine (Edison, N.J., USA). All tissue was scored by a pathologist as normal (i.e., derived from non-cancerous, non-diseased tissue). Cell isolation procedures were based on those originally described by Todd et al. (1996) and modified (Cummings and Lash, 2000; Cummings et al., 2000) with use of sterile conditions (i.e., all instruments and glassware were autoclaved and all buffers were filtered through a 0.2-μm pore-size filter). Renal cortex and outer stripe were cut into slices, washed with sterile PBS, minced, and the pieces were placed in a trypsinization flask filled with 300 ml of sterile, filtered Hanks' buffer, containing 25 mM NaHCO3, 25 mM HEPES, pH 7.4, 0.5 mM EGTA, 0.2% (w/v) bovine serum albumin, 50 μg/ml gentamicin, 1.3 mg/mL collagenase, and 0.59 mg/ml CaCl2), which was filtered prior to use. Whole kidneys were perfused with Wisconsin medium and kept on ice until they arrived at the laboratory, which was usually within 24 h of removal from the donor.
(§2) All buffers were continuously bubbled with 95% O2/5% CO2 and were maintained at 37° C. Minced cortical pieces from whole kidneys were subjected to collagenase digestion for 60 min, after which the supernatant was filtered through a 70-μm mesh filter to remove tissue fragments, centrifuged at 150×g for 7 min, and the pellet resuspended in Dulbecco's Modified Eagle's Medium: Ham's F12 Medium (DMEM/F12; 1/1). Approximately 5 to 7×10^6 cells were obtained per 1 g of human kidney cortical tissue.
(§3) hPT cells were resuspended in 2 mL of DMEM/F12 and diluted to 500 mL with cell culture medium, which was serum-free and hormonally-defined. Composition of this supplemented medium was based on earlier work establishing optimal conditions for primary culture of rat PT cells (Lash et al., 1995). Basal medium was a 1:1 mixture of DMEM/F12. […] Cells were seeded in a volume of 0.5 ml at a density of 50-100 μg protein per cm^2 (0.5-1.0×10^6 cells/ml) on 24-well plates. Cultures were grown at 37° C. in a humidified incubator under an atmosphere of 95% air/5% CO2 at pH 7.4. Cultures were grown to approximately 80%-90% confluence (generally 5-6 days) prior to experiments. Cells were harvested by either scraping the flasks with a Teflon scraper or by brief incubation with Cellstripper (Cellgro, Herndon, Va., USA) (in Ca^2+- and Mg^2+-free Hanks' buffer).
Release of gamm-glutanyltransferase was assessed according to Orlowski, M., Meister, A. 1963. γ-Glutamyl-p-nitroanilide: A new convenient substrate for determination and study of L- and D-γ-glutamyltranspeptidase activities (Biochim. Biophys. Acta 73: 679-681.)
A 2.5 mM substrate Solution was prepared from 67 mg γ-glutamyl-p-nitroanilide+264 mg glycylglycine in 100 mL of 0.05 M Tris, pH 8.2 (50 mM Tris, pH 8.2: 605 mg Tris/HCl per 100 mL).
For the assay in 96-well plates, 6-μL of sample and 0.3 mL substrate solution were added to each well. The absorbance was measured at 410 nm for the appearance of product, p-nitroanilide (molar extinction=8800 M^−1 cm^−1).

[2] = In vitro nephrotoxicity, LDH release from primary human kidney cells; format: cell-based; details: pH 7.4
From the text: as §1, §2, §3

[3] = system: K. pneumoniae ATCC BAA-2146, NDM-1 pos
Procedure, shortened: (§4)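 Mid-log cultures grown in Mueller Hinton broth at 37° C were tested by 2-fold broth microdilution at 5×10^5 CFU/mL final. Compounds were dissolved in water and tested over a final range of 32 to 0.015 μg/mL.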

[4] = system: A. baumannii ATCC 19606
Procedure, shortened: as §4

[5] = system: K. pneumoniae ATCC 13883
Procedure, shortened: as §4

[6] = system: E. coli ATCC 25922
Procedure, shortened: as §4

[7] = system: K. pneumoniae GN_102 PmxR
Procedure, shortened: as §4

[8] = system: P. aeruginosa GN_043, PmxR
Procedure, shortened: as §4

[9] = system: K. pneumoniae GN_106, PmxR
Procedure, shortened: as §4

[10] = system: S. aureus ATCC 25923, MSSA
Procedure, shortened: as §4

[11] = system: P. aeruginosa GN_105, PmxR
Procedure, shortened: as §4

[12] = system: A. baumannii GN_093 PmxR
Procedure, shortened: as §4

[13] = system: P. aeruginosa ATCC 27853
Procedure, shortened: as §4

[14] = system: K. pneumoniae ATCC 700603, MDR
Procedure, shortened: as §4

[15] = Cytotoxicity, resazurin assay, HEK293; details: human
Procedure, shortened: (§5)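 4000 cells/well, 24 h attach (37 °C, 5% CO2); compound 24 h; 5 μM resazurin 2 h, 37 °C; fluorescence ex/em 560/590. CC50 by curve fit.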

[16] = Cytotoxicity, resazurin assay, HepG2; details: human
Procedure, shortened: as §5

[17] = Cytotoxicity, HK2 LDH assay; details: human
Procedure, shortened: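 HK2 cells were seeded at 2000 per well in DMEM/F12 with 10% FBS and left to attach for 24 h at 37 °C, 5% CO2. They were then exposed for 24 h to 3-fold peptide dilutions starting from 600 μM solutions in quadruplicate. LDH release was read at 450 nm, and CC50 was fitted from dose-response curves.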

CCCCCCC[C@@H](O)CC(=O)N[C@H](CCN)C(=O)N[C@H]1CCNC(=O)[C@H](CC(C)C)NC(=O)[C@H](CCN)NC(=O)[C@H](CCCCN)NC(=O)[C@H](CC(C)C)NC(=O)[C@@H](Cc2ccccc2)NC(=O)[C@H](CCN)NC1=O [compound 992, 3(R)OH-nC9CO-D-Dab-cyc[L-Dab-L-Dab-D-Phe-L-Leu-L-Lys-L-Dab-L-Leu]] ({Decanoyl(3R-OH)}-[dDab][Dab][Dab][dF]LK[Dab]L; lactam 2-C)
CC50 [1]: > 128 µg/mL | CC50 [2]: 114 µg/mL (≈ 106 µM) | MIC, K. pneumoniae ATCC BAA-2146, NDM-1 pos ([3]; ATCC BAA-2146): 2 µg/mL (≈ 1.86 µM) | MIC, A. baumannii ATCC 19606 ([4]; ATCC 19606): 2 µg/mL (≈ 1.86 µM) | MIC, K. pneumoniae ATCC 13883 ([5]; ATCC 13883): 2 µg/mL (≈ 1.86 µM) | MIC, E. coli ATCC 25922 ([6]; ATCC 25922): 2 µg/mL (≈ 1.86 µM) | MIC, K. pneumoniae Cl Koprana 10065 0661:1, PmxR ([7]; GN 102 PmxR): 4 µg/mL (≈ 3.73 µM) | MIC, P. aeruginosa FADDI-PA070, PmxR ([8]; Table 5, polymyxin-resistant): 2 µg/mL (≈ 1.86 µM) | MIC, K. pneumoniae Cl 138-16347-20362, PmxR ([9]; GN 106, PmxR): 4 µg/mL (≈ 3.73 µM) | MIC, S. Aureus ATCC 25923, MSSA ([10]; ATCC 25923): 16 µg/mL (≈ 14.9 µM) | MIC, P. aeruginosa PA9704, PmxR ([11]; GN 105, PmxR): 4 µg/mL (≈ 3.73 µM) | MIC, A. baumannii Cl Ptyela 10073 4512:2, PmxR ([12]; GN 093 PmxR): 8 µg/mL (≈ 7.46 µM) | MIC, P. aeruginosa ATCC 27853 ([13]; ATCC 27853): 2 µg/mL (≈ 1.86 µM) | MIC, K. pneumoniae ATCC 700603, MDR ([14]; ATCC 700603): 2 µg/mL (≈ 1.86 µM)

CC(C)C[C@@H]1NC(=O)[C@H](CCN)NC(=O)[C@H](CCN)NC(=O)[C@H](Cc2ccccc2)NC(=O)[C@@H](CC(C)C)NC(=O)[C@H](CCN)NC(=O)[C@@H](NC(=O)[C@@H](CCN)NC(=O)CCCCCCCO)CCNC1=O [compound 6514, 8OH-nC7CO-D-Dab-cyc[L-Dab-L-Dab-D-Leu-L-Phe-L-Dab-L-Dab-L-Leu]] (X5-[dDab][Dab][Dab][dL]F[Dab][Dab]L; lactam 2-C)
CC50 at 24 h [15]: > 300 µM | CC50 at 24 h [16]: > 300 µM | CC50 at 24 h [17]: > 300 µM | MIC K. pneumoniae ATCC BAA-2146, NDM-1 pos ([3]; K. pneumoniae ATCC BAA-2146, NDM-1 pos): >32 µg/mL | MIC A. baumannii ATCC 19606 ([4]; A. baumannii ATCC 19606): >32 µg/mL | MIC K. pneumoniae ATCC 13883 ([5]; K. pneumoniae ATCC 13883): >32 µg/mL | MIC E. coli ATCC 25922 ([6]; E. coli ATCC 25922): >32 µg/mL | MIC K. pneumoniae GN_102 PmxR ([7]; K. pneumoniae GN_102 PmxR): >32 µg/mL | MIC P. aeruginosa GN_043, PmxR [8]: 4 µg/mL (≈ 3.94 µM) | MIC K. pneumoniae GN_106, PmxR ([9]; K. pneumoniae GN_106, PmxR): >32 µg/mL | MIC S. aureus ATCC 25923, MSSA ([10]; S. aureus ATCC 25923, MSSA): >32 µg/mL | MIC P. aeruginosa GN_105, PmxR ([11]; P. aeruginosa GN_105, PmxR): >32 µg/mL | MIC A. baumannii GN_093 PmxR ([12]; A. baumannii GN_093 PmxR): >32 µg/mL | MIC P. aeruginosa ATCC 27853 ([13]; P. aeruginosa ATCC 27853): 8 µg/mL (≈ 7.87 µM) | MIC K. pneumoniae ATCC 700603, MDR ([14]; K. pneumoniae ATCC 700603, MDR): >32 µg/mL

CCCCCCC[C@@H](O)CC(=O)N[C@H](CCCN)C(=O)N[C@H]1CCNC(=O)[C@H](CC(C)C)NC(=O)[C@H](CCN)NC(=O)[C@H](CCN)NC(=O)[C@H](Cc2ccccc2)NC(=O)[C@@H](CC(C)C)NC(=O)[C@H](CCN)NC1=O [compound 6428, 3(R)OH-nC9CO-D-Orn-cyc[L-Dab-L-Dab-D-Leu-L-Phe-L-Dab-L-Dab-L-Leu]] ({Decanoyl(3R-OH)}-[dOrn][Dab][Dab][dL]F[Dab][Dab]L; lactam 2-C)
CC50 at 24 h [15]: > 300 µM | CC50 at 24 h [16]: > 300 µM | CC50 at 24 h [17]: 137 µM | MIC K. pneumoniae ATCC BAA-2146, NDM-1 pos ([3]; ATCC BAA-2146): 16 µg/mL (≈ 15.1 µM) | MIC A. baumannii ATCC 19606 ([4]; ATCC 19606): 32 µg/mL (≈ 30.2 µM) | MIC K. pneumoniae ATCC 13883 ([5]; ATCC 13883): 16 µg/mL (≈ 15.1 µM) | MIC E. coli ATCC 25922 ([6]; ATCC 25922): 16 µg/mL (≈ 15.1 µM) | MIC K. pneumoniae GN_102 PmxR ([7]; GN 102 PmxR): 2 µg/mL (≈ 1.89 µM) | MIC P. aeruginosa GN_043, PmxR [8]: 4 µg/mL (≈ 3.78 µM) | MIC K. pneumoniae GN_106, PmxR ([9]; GN 106, PmxR): 4 µg/mL (≈ 3.78 µM) | MIC S. aureus ATCC 25923, MSSA ([10]; ATCC 25923): 32 µg/mL (≈ 30.2 µM) | MIC P. aeruginosa GN_105, PmxR ([11]; GN 105, PmxR): 4 µg/mL (≈ 3.78 µM) | MIC A. baumannii GN_093 PmxR ([12]; GN 093 PmxR): 16 µg/mL (≈ 15.1 µM) | MIC P. aeruginosa ATCC 27853 ([13]; ATCC 27853): 4 µg/mL (≈ 3.78 µM) | MIC K. pneumoniae ATCC 700603, MDR ([14]; ATCC 700603): 8 µg/mL (≈ 7.56 µM)
